# Patent publication US9128097B2, “Method and kit for assessing viable cells” (ChemoMetec A/S, priority 2008, dated 2015)
# System: bone marrow derived dendritic cells (BM-DCs)
# Assay: Staining of bone marrow derived dendritic cells with labelling agent and PI
# Type: cell-based, murine
# Details: dendritic cells 97% viable; 10 μL NAM (100 μg pr. mL DMSO) to 90 μL cells
# Source text: Materials and Methods. Dendritic cells were developed from murine bone marrow derived cells as described by “Lutz, M. B., N. Kukutsch, A. L. Ogilvie, S. Rossner, F. Koch, N. Romani, and G. Schuler. 1999. An advanced culture method for generating large quantities of highly pure dendritic cells from mouse bone marrow. J Immunol Methods 223:77-92”. Bone marrow cells were harvested aseptically in the laminar flow hood as described in example 11. Washed and resuspended bone marrow cells were resuspended in RPMI 1640 (Invitrogen, #61870) supplemented with 10% heat-inactivated fetal bovine serum (Invitrogen, #10108-165), 100 U/mL penicillin and 100 μg/mL streptomycin (Invitrogen, #15140-122). […] 90 μL dendritic cells (cell density 1.2×10^6, 97% viable determined using the NC-100 NucleoCounter system following the manufacturer's (ChemoMetec A/S) protocol) were added 10 μL NAM (N-(9-acridinyl)maleimide, Sigma, #01665, CAS no. 49759-20-8) dissolved in DMSO (100 μg NAM pr. mL DMSO) and mixed by pipetting. […] The cells were investigated using an Olympus IX50 fluorescence microscope, and images were captured using a Lumenera CCD camera and in-house developed software. PI and NAM fluorescence were detected using, respectively, U-MWG2 (green long pass: 510-550 nm) and U-MNUA2 (UV band pass, 330-385 nm) filter cubes (Olympus). […]
compound,measurement,value
"O=C1C=CC(=O)N1c1c2ccccc2nc2ccccc12 [NAM, N-(9-acridinyl)maleimide]",staining of cells (UV filter) versus PI positive cells,nearly all the dendritic cells were stained by NAM
